Measured values taken from US6927208B1, “Cyclosporin with improved activity profile” (Debiopharm S.A., priority 1998, dated 2005).

Key:
cyclophilin A = cyclophilin A (Homo sapiens, UniProt P62937); assay: competitive ELISA test, affinity of Cs derivatives for cyclophilin A; format: binding; settings: 1.0 = binds as well as CsA, lower than 1.0 = binds better
Method: The results of Table 1 show the affinity of the derivatives of Cs for cyclophilin A in a competitive ELISA test described by Quesniaux in Eur. J. Immunology 1987, 17, 1359-1365. In this test, during incubation with cyclophilin, Cs bound to BSA (serum albumin) is added to the Cs to be tested. The concentration required to obtain 50% inhibition (IC50) of the reference reaction in the absence of competitor is then calculated. The results are expressed by the binding index BI which is the ratio of the IC50 of the derivative and the IC50 of CsA.

[1] = system: Balb/c mouse spleen cells stimulated with treated CBA mouse spleen cells; assay: mixed lymphocyte reaction (MLR), immunosuppressive activity; format: cell-based, mice; settings: 5 days, greater than 1.0 = less active than CsA, >20 = not immunosuppressive
Method: Cs is regarded as being immunosuppressive if its activity in the mixed lymphocyte reaction (MLR) is greater than 5%. The reaction (MLR) is described by T. Meo in “Immunological Methods”, L. Lefkovits and […]: 227-239 (1979). Spleen cells (0.5.10^6) originating from Balb/c mice (female, 8 to 10 weeks) are co-incubated for 5 days in the presence of treated spleen cells originating from CBA mice (females, 8 to 10 weeks). These cells were treated with mitomycin C or were irradiated at 2000 rads. […] The IC50 calculated in the MLR test is compared with the IC50 corresponding to CsA in a parallel experiment.

HIV in CEM-SS cell line = assay: protection during infection with HIV of a CEM-SS cell line (measured by the NCI); format: cell-based; settings: mean value at a derivative concentration of 2×10^−6 molar, compared with infection in the absence of Cs
Method: The protection of this line in the presence of a Cs derivative is compared with the infection of a line cultivated in the absence of Cs (reference control). A mean value is established at a concentration of the derivative of 2×10^−6 molar. This anti-HIV activity was measured by the NCI (National Cancer Institute) in Washington in the USA.

Sequence of cyclophilin A (P62937 whole entry, species assumed): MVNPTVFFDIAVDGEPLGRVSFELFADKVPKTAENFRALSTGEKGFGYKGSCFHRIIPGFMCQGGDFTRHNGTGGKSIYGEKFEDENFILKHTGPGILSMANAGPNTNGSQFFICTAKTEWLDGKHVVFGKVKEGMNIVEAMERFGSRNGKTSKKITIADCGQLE

Row | Molecule | BI (binding index: ratio of the IC50 of the derivative and the IC50 of CsA) (cyclophilin A) | IR (ratio of the IC50 of the MLR test of the derivative over the IC50 of cyclosporin A) [1] | Percentage HIV Protection (HIV in CEM-SS cell line)
1 | C/C=C/C[C@@H](C)[C@@H](O)[C@H]1C(=O)N[C@@H](CC)C(=O)N(C)CC(=O)N(C)[C@@H]([C@@H](C)CC)C(=O)N[C@@H](C(C)C)C(=O)N(C)[C@@H](CC(C)C)C(=O)N[C@@H](C)C(=O)N[C@H](C)C(=O)N(C)[C@@H](CC(C)C)C(=O)N(C)[C@@H](CC(C)C)C(=O)N(C)[C@@H](C(C)C)C(=O)N1C [UNIL 007, MeIle^4-Cs] | 0.5 | >200 | 68.5
2 | EtIle4-Cs [UNIL 013] | 1.3 | >200 | 
3 | EtPhe(4-CH2PO(OMe)2)-Cs [UNIL 014] | 0.5 | >200 | 
4 | EtVal^4-Cs [UNIL 004] | 1.0 | >200 | 74.9
5 | MeVal^4-Cs [UNIL 002] | 0.6 | >200 | 66.4
6 | cyclosporin A [UNIL 001] | 1.0 | 1.0 | 
